# Values joined by “and” are separate entries in the source; they are usually repeats but may differ in a detail not shown here. Identical values can stand only once.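 Each compound was tested at five concentrations against cells in 96-well plates for 48 hours. Here, GI50 denotes the concentration required for 50% inhibition of growth. TGI: total growth inhibition.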
# Tested on: MDA-MB-468 breast
# Test: inhibition of tumour cell growth, NCI panel, 48 h
SMILES,GI50,TGI
COc1cnc2c(c1)C(=O)c1c-2n(CCCn2ccnc2)c(=O)c2cc(F)ccc12,19.7 nM,154 nM
C#C[C@]1(O)CC[C@H]2[C@@H]3CC=C4c5sc(Nc6ccncc6)nc5CC[C@]4(C)[C@H]3CC[C@@]21C,477 nM,2270 nM
O=C(NNc1nc2cc(F)ccc2n2c(CO)ccc12)c1cnccn1,448 nM,3340 nM
CCN(CC)CCCC(C)Nc1ccnc2cc(Oc3ccccc3)ccc12 (configuration not stated),3060 nM and 3950 nM,13300 nM and 15100 nM
CCN(CC)CCCCNc1c2ccccc2[n+](C)c2c1[nH]c1ccccc12,222 nM,4850 nM
C=C1CCC2C3(C)COC(c4ccc(N(C)C)cc4)OC3CCC2(C)C1C/C=C1/C(=O)OCC1O (configuration not stated),1440 nM,3090 nM
COc1ccc(-c2cc(=O)[nH]c3c(OC)c4ccccc4c(OC)c23)cc1,557 nM,
COc1ccc(C(=O)c2cc(OC)c(OC)c(OC)c2)cc1OC(=O)CCl,787 nM,
COc1c(C)c2c(c(O)c1C/C=C(\C)CCC(=O)O)C(=O)OC2,515 nM,> 100000 nM
Cc1cc(O)c(C(C)C)cc1S(=O)(=O)O (tested in a mixture with another compound),273 nM,1180 nM
C=C1C(=O)O[C@H]2[C@H]1CC/C(COC(=O)NCc1ccc(Cn3c(=O)sn(CCCl)c3=O)cc1)=C\CC[C@@]1(C)O[C@@H]21,1780 nM,4520 nM
FC(F)(F)c1ccc(Nc2nc(-c3c(C(F)(F)F)nc4ccccn34)cs2)cc1,160 nM,1040 nM
COc1ccc(C(=O)OC2C(OC3C(O)COC(O[C@H]4C[C@H]5[C@@H]6CC=C7C[C@@H](O)CC[C@]7(C)[C@H]6CC[C@]5(C)[C@H]4[C@H](C)C(=O)CCC(C)C)C3OC(N)=O)OCC(O)C2O)cc1 (some centres not stated),78.1 nM,1600 nM
COc1ccc2[nH]c(O)c(N=NC(=O)c3oc4ccccc4c3C)c2c1,2600 nM,6530 nM
COc1ccc(-c2c[nH]c(C(=O)O)c2-c2cc(OC)c(OC)c(OC)c2)cc1,2240 nM,6780 nM
Cc1c(C(N)=O)sc2c1C(=O)N(Cc1ccccc1)C1=NN=C(c3ccc(Cl)cc3)CN12,1930 nM,7540 nM
COC(=O)c1nc(-c2ccccc2)oc1S(=O)(=O)Cc1ccccc1,1850 nM,4020 nM
CN(C)CCN1C(=O)c2ccccc2N(C)c2ccccc21,> 100000 nM,> 100000 nM
CN[C@@H](C)C(=O)N[C@H](C(=O)N1CCC[C@H]1C(=O)Nc1snnc1-c1ccccc1)C1CCCCC1,16000 nM,59400 nM

SMILES,GI50,TGI
CC(C)(C)c1ccc(Oc2nccc(-c3c(-c4ccc(F)cc4)ncn3C3CCNCC3)n2)cc1,2580 nM,5970 nM
C=C(C)C(=O)Nc1ccc(NC(C)C)cc1,> 100000 nM,> 100000 nM
CCN(CC)c1ccc(/C=N/NC(=O)c2ccc(NS(C)(=O)=O)cc2)c(O)c1,331 nM,2930 nM
COc1cc(NC(C)CCCNC2CN3CCC2CC3)c2ncccc2c1 (configuration not stated),1710 nM,3840 nM
C[C@H]1[C@H](C)CC[C@]2(CO)CC[C@]3(C)C(=CC[C@@H]4[C@@]5(C)CCCNC(C)(C)[C@@H]5CC[C@]43C)[C@H]12,1700 nM,3440 nM
Nc1c(C(=O)c2cccc(-c3ccncc3)c2)cnn1-c1ccc(F)cc1F,2180 nM,17900 nM
O=C(CCCCCCCCC(=O)N/N=C\c1ccccc1O)N/N=C\c1ccccc1O,1620 nM,5230 nM
CC(C)(C)n1cc(-c2ccnc(NCCCNS(=O)(=O)c3ccc(C(F)(F)F)cc3)c2)c(-c2cccc(O)c2)n1,1880 nM,4060 nM
C=C1C(=O)O[C@H]2[C@H]1CC/C(COC(=O)NCc1cn(C)c3ccccc13)=C\CC[C@@]1(C)O[C@@H]21,836 nM,2950 nM
c1ccc2[nH]c(-c3ccc(-c4nccc5c4[nH]c4ccccc45)cc3)nc2c1,2520 nM,6620 nM
COc1cc(CSc2nc3ccc(C)cc3c(=O)n2-c2ccccc2)cc(OC)c1OC,266 nM,2110 nM
C#Cc1c(F)ccc2cc(O)cc(-c3ncc4c(N5CC6CCC(C5)N6)nc(OC[C@@]56CCCN5C[C@H](F)C6)nc4c3F)c12,4780 nM,11900 nM
CC/C=C1/C(=O)C=C[C@@H]1C/C=C\CCCC(=O)OC,2310 nM,6040 nM
COc1ccc(-c2nc(-c3nc4ccc(OC)cc4[nH]3)c3ccccn23)cc1,4080 nM,84500 nM
O=C(CCCCCCC(=O)Nc1ccccc1)NO,361 nM and 899 nM,12300 nM and 10800 nM
CC(C)[C@H](N)C(=O)N1CCC[C@H]1B(O)O,> 100000 nM,> 100000 nM
CC(C)(C)OC(=O)N1CCN(CCn2cc(C(F)(F)F)c3c(Cl)ncnc32)CC1,1920 nM,3770 nM
CCCCCCCCCCCCCCCCCCOc1ccccc1CC(=O)OCC[N+]1(C)CCCCC1,1530 nM,3830 nM
